These are literature values, as cited in US11229664B2, “Treatment of myelosuppression” (priority 2012, dated 2022).

Targets include Xa (Homo sapiens, UniProt P00742); anti-thrombin III (Homo sapiens, UniProt P01008); IIa (Homo sapiens, UniProt P00734+P01008).
What all share (settings): cited from earlier work
Another data set has as its system anticoagulant activity.

Chain of anti-thrombin III (P01008 33-464, species assumed): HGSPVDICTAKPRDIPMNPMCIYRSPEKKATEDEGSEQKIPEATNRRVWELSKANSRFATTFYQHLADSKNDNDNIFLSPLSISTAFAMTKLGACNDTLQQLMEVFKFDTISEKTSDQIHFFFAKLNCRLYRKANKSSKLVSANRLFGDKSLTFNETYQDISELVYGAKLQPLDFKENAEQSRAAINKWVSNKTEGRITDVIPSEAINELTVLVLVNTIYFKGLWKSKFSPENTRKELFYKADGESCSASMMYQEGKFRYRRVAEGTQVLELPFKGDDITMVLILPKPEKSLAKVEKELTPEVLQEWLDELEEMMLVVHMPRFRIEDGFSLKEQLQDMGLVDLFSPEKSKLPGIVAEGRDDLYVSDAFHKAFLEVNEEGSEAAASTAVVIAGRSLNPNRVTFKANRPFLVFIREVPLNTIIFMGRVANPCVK
Chain of Xa (P01008 33-464 partner): as the sequence (P01008 33-464, species assumed) above
Chain of Xa (P00742 235-488 limits assumed): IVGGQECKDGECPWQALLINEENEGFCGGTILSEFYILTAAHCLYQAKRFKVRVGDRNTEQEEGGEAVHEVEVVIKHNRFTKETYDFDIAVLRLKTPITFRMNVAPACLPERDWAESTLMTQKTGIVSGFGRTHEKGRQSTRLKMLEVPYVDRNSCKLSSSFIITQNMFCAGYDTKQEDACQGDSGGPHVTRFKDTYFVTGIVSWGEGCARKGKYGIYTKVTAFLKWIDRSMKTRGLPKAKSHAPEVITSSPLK

As to unfractionated heparin, the anti-Xa activity at Xa is listed as 165-190 U/mg. At anti-thrombin III, the “Kd, affinity for anti-thrombin III” value was 22 µg/mL. Also, the Kd (commonly the free concentration of one partner at which half of the binding sites on the other are occupied at equilibrium, for simple one-to-one binding) at anti-thrombin III (read-out: Kd, affinity for anti-thrombin III) is 1560 nM. Besides, the anti-IIa activity on IIa was 165-190 U/mg. In the data set with anticoagulant activity, the “Anticoagulant activity, USP anticoagulant assay” value is given as 165-190 U/mg.
